The target in one assay is T1, LecA (Pseudomonas aeruginosa, UniProt Q05097).
T1 construct: made in house; host or cells: Escherichia coli BL21(DE3)
Briefly: biochemical. Type of assay: binding. How it is done:
(§1) The resulting hGCs were tested in solution with lectins by Isothermal Titration Calorimetry (Table 1) and their binding properties were compared with homoclusters 15–20 (Berthet et al., [2013]; Thomas et al., [2015b]) displaying either 4 and 16 βGal or αFuc units attached with an oxime or a triazole linker (Figure 3). […] Experiments were performed in direct injection mode (i.e., ligand in syringe and protein in cell) to minimize aggregation problems.
(§2) All chemical reagents were purchased from Aldrich (Saint Quentin Fallavier, France) or Acros (Noisy-Le-Grand, France). All protected amino acids and Fmoc-Gly-Sasrin® resin was obtained from Advanced ChemTech Europe (Brussels, Belgium). For peptides and glycopeptides, analytical RP-HPLC was performed on Waters system equipped with a Waters 2695 separations module and a Waters 2487 Dual Absorbance UV/Visible Detector. Analysis was carried out at 1.0 mL/min (EC 125/3 nucleosil 300-5 C18) with UV monitoring at 214 nm and 250 nm using a linear A–B gradient (buffer A: 0.09% CF3CO2H in water; buffer B: 0.09% CF3CO2H in 90% acetonitrile). Purifications were carried out at 22.0 mL/min (VP 250/21 nucleosil 100-7 C18) with UV monitoring at 214 nm and 250 nm using a linear A–B gradient. HRMS and ESI-MS and HRMS spectra of peptides and glycopeptides were measured on an Esquire 3000 spectrometer from Bruker. Lectins LecA and LecB were produced in recombinant form in Escherichia coli BL21(DE3) as described previously (Mitchell et al., [2005]; Blanchard et al., [2008]).
Other compounds were assayed with a VP-ITC isothermal titration calorimeter (Microcal). The experiments were carried out at 25°C. All glycocompounds and lectins LecB and LecA were dissolved in the same buffer composed of 20 mM Tris with 100 mM NaCl and 0.1 mM CaCl2 at pH 7.5. For PEAQ-ITC, the lectins were placed in the microcalorimeter cell (200 μL) at concentrations varying from 35 to 70 μM. […] For VP-ITC, the microcalorimeter cell (1.447 mL) contained the lectins with concentrations between 30 and 100 μM. […] The experimental data were fitted to a theoretical titration curve using the Microcal PEAQ-ITC analysis software, with ΔH (enthalpy change), Ka (association constant), and N (number of binding sites per monomer) as adjustable parameters. Dissociation constant (Kd), free energy change (ΔG), and entropy contributions (TΔS) were derived from the previous ones. Two or three independent titrations were performed for each ligand tested.

For the next assay, the target named is T2, LecB (Pseudomonas aeruginosa, UniProt Q9HYN5).
T2 construct: made in house; host or cells: Escherichia coli BL21(DE3)
Briefly: biochemical. The assay is classed as binding. As for the experimental part:
as §1, §2
Other compounds were assayed with a VP-ITC isothermal titration calorimeter (Microcal). The experiments were carried out at 25°C. All glycocompounds and lectins LecB and LecA were dissolved in the same buffer composed of 20 mM Tris with 100 mM NaCl and 0.1 mM CaCl2 at pH 7.5. For PEAQ-ITC, the lectins were placed in the microcalorimeter cell (200 μL) at concentrations varying from 35 to 70 μM. […] For VP-ITC, the microcalorimeter cell (1.447 mL) contained the lectins with concentrations between 30 and 100 μM. A total of 30 injections of 10 μL were performed intervals of 5 min while stirring at 310 rpm with glycoclusters concentrations varying from […]. The experimental data were fitted to a theoretical titration curve using the Microcal PEAQ-ITC analysis software, with ΔH (enthalpy change), Ka (association constant), and N (number of binding sites per monomer) as adjustable parameters. Dissociation constant (Kd), free energy change (ΔG), and entropy contributions (TΔS) were derived from the previous ones. Two or three independent titrations were performed for each ligand tested.

[1] abbreviates: LecA, ITC, 25°C, per mole of glycocluster.
Where [2] appears, read: ITC, 25°C, per mole of glycocluster.

T2 sequence (Q9HYN5 entry or part of it): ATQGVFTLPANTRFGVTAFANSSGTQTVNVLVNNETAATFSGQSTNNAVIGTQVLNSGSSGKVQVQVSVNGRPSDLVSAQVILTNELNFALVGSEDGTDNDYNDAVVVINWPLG
T1 sequence (Q05097 whole entry): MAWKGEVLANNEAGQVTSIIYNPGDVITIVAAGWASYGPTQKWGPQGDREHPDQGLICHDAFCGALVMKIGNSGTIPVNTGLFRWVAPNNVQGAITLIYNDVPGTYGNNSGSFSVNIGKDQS

Take `C[C@@H]1NC(=O)[C@H](CCCCNC(=O)/C=N/O[C@@H]2O[C@H](CO)[C@H](O)[C@H](O)[C@H]2O)NC(=O)CNC(=O)[C@@H]2CCCN2C(=O)[C@H](CCCCNC(=O)/C=N/O[C@@H]2O[C@H](CO)[C@H](O)[C@H](O)[C@H]2O)NC(=O)[C@H](CCCCNC(=O)CO/N=C/C(=O)NCCCC[C@@H]2NC(=O)CNC(=O)[C@@H]3CCCN3C(=O)[C@H](CCCCNC(=O)/C=N/OCC(=O)NCCCC[C@@H]3NC(=O)[C@H](CCCCNC(=O)/C=N/O[C@@H]4O[C@H](CO)[C@H](O)[C@H](O)[C@H]4O)NC(=O)CNC(=O)[C@@H]4CCCN4C(=O)[C@H](CCCCNC(=O)/C=N/O[C@@H]4O[C@H](CO)[C@H](O)[C@H](O)[C@H]4O)NC(=O)[C@H](C)NC(=O)[C@H](CCCCNC(=O)/C=N/O[C@@H]4O[C@H](CO)[C@H](O)[C@H](O)[C@H]4O)NC(=O)CNC(=O)[C@@H]4CCCN4C(=O)[C@H](CCCCNC(=O)/C=N/O[C@@H]4O[C@H](CO)[C@H](O)[C@H](O)[C@H]4O)NC3=O)NC(=O)[C@H](CCCCN)NC(=O)[C@H](CCCCNC(=O)CO/N=C/C(=O)NCCCC[C@@H]3NC(=O)[C@H](CCCCn4cc(CO[C@@H]5O[C@@H](C)[C@@H](O)[C@@H](O)[C@@H]5O)nn4)NC(=O)CNC(=O)[C@@H]4CCCN4C(=O)[C@H](CCCCn4cc(CO[C@@H]5O[C@@H](C)[C@@H](O)[C@@H](O)[C@@H]5O)nn4)NC(=O)[C@H](C)NC(=O)[C@H](CCCCn4cc(CO[C@@H]5O[C@@H](C)[C@@H](O)[C@@H](O)[C@@H]5O)nn4)NC(=O)CNC(=O)[C@@H]4CCCN4C(=O)[C@H](CCCCn4cc(CO[C@@H]5O[C@@H](C)[C@@H](O)[C@@H](O)[C@@H]5O)nn4)NC3=O)NC(=O)CNC(=O)[C@@H]3CCCN3C(=O)[C@H](CCCCNC(=O)CO/N=C/C(=O)NCCCC[C@@H]3NC(=O)[C@H](CCCCn4cc(CO[C@@H]5O[C@@H](C)[C@@H](O)[C@@H](O)[C@@H]5O)nn4)NC(=O)CNC(=O)[C@@H]4CCCN4C(=O)[C@H](CCCCn4cc(CO[C@@H]5O[C@@H](C)[C@@H](O)[C@@H](O)[C@@H]5O)nn4)NC(=O)[C@H](C)NC(=O)[C@H](CCCCn4cc(CO[C@@H]5O[C@@H](C)[C@@H](O)[C@@H](O)[C@@H]5O)nn4)NC(=O)CNC(=O)[C@@H]4CCCN4C(=O)[C@H](CCCCn4cc(CO[C@@H]5O[C@@H](C)[C@@H](O)[C@@H](O)[C@@H]5O)nn4)NC3=O)NC(=O)[C@H](C)NC2=O)NC(=O)[C@H](CCCCNC(=O)/C=N/O[C@@H]2O[C@H](CO)[C@H](O)[C@H](O)[C@H]2O)NC(=O)CNC(=O)[C@@H]2CCCN2C(=O)[C@H](CCCCNC(=O)/C=N/O[C@@H]2O[C@H](CO)[C@H](O)[C@H](O)[C@H]2O)NC1=O` [Compound 13]: the equilibrium dissociation constant (Kd) (usually the equilibrium constant for the complex coming apart) on LecA was 35 ± 0.1 nM; at LecB (Kd, ITC, 25°C, 20 mM Tris, 100 mM NaCl, 0.1 mM CaCl2, pH 7.5, ligand in syringe) it was 118 ± 15 nM. Besides, the “–ΔH (binding enthalpy)” value at LecA (LecA, ITC) fell in the range of 51.6 to 58.1 kcal/mol. The “n (stoichiometry, glycocluster molecules per lectin monomer)” value turned out to be 0.16 on LecA (LecA, ITC, 25°C, pH 7.5) and 0.10 on LecB (ITC, 25°C, pH 7.5). Moreover, the “–ΔG” value at LecA (setting [1]) is 10.2 kcal/mol; on LecB (setting [2]), 9.44 kcal/mol. Also, the “–ΔH” value on LecA (setting [1]) amounted to 51.6 ± 0.72 kcal/mol; on LecB (setting [2]) it was 43.71 ± 1.9 kcal/mol. Besides, the “−TΔS” value at LecA (setting [1]) worked out at 41.49 kcal/mol; at LecB (setting [2]), 34.25 kcal/mol. For the same molecule, the “binding to LecA in words” value at LecA (LecA, abstract) is “maintain their binding potency”. For the same molecule, the “α (relative potency compared to the monovalent compound)” value is on record as 4,286 at LecA (LecA, relative to βGal-OMe) and 3.6 on LecB (relative to αFuc-OMe). The “β (relative potency per sugar unit)” value at LecA (LecA, relative to βGal-OMe) is recorded as 536; on LecB (relative to αFuc-OMe), 0.5. Besides, the “binding to LecB in words” value on LecB (abstract) is recorded as “maintain their binding potency”.

(Values after publication PMC6783499, “Heteroglycoclusters With Dual Nanomolar Affinities for the Lectins LecA and LecB From Pseudomonas aeruginosa” (Frontiers in Chemistry, 2019).)
